One assay deals with T1, OsCSD1.
T1 construct: gene SODCC1
Kind of assay: SOD activity, NBT reduction assay (NADH/PMS), A560. Format: biochemical, Oryza sativa. As to conditions: 1 h pre-incubation with DDC (0-2.0 mM); 1 U enzyme; Tris-HCl 50 mM pH 8.0, EDTA 0.1 mM.

A further assay deals with T2, OsCSD4.
T2 construct: gene SODCC2
Put plainly: SOD activity, NBT reduction assay (NADH/PMS), A560. The class given is biochemical, Oryza sativa. As to conditions: 1 h pre-incubation with DDC (0-2.0 mM); 1 U enzyme; Tris-HCl 50 mM pH 8.0, EDTA 0.1 mM.

Turning to `CCN(CC)C(=S)S` [diethyldithiocarbamate], the IC50 (usually the concentration needed to halve the response being measured) in the assay with OsCSD1 came to 520 µM; with OsCSD4, 500 µM.

Values taken from paper PMC9191229, “Molecular and Biochemical Analysis of Duplicated Cytosolic CuZn Superoxide Dismutases of Rice and in silico Analysis in Plants” (Frontiers in Plant Science, 2022).
